Patent US20230233569A1 (Revolution Medicines, Inc., priority 2020, published 2023)
Where two headings read alike, the source gives them in different places.

Experiments:
Capan-1 (K-Ras G12V) = assay: CellTiter-Glo cell viability assay, 5-day treatment; format: cell-based; conditions: Homo sapiens, CAPAN-1, 120 h, 5-day treatment; read-out: Capan-1 Cell Viability assay data (K-Ras G12V, IC50)
How it was run: (§1)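 Five-day compound treatment of plated cells; luminescent read after ~30 min at RT. Percent-of-DMSO data fit to a four-parameter logistic model.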

NCI-H358 (K-Ras G12C) = assay: as above; format: cell-based; conditions: Homo sapiens, NCI-H358, 120 h, 5-day treatment; read-out: H358 Cell Viability assay data (K-Ras G12C, IC50)
How it was run: as §1

KRAS G12C = KRAS G12C (Homo sapiens, UniProt P01116+P62937, G12C); assay: Disruption of BRAF RBD interaction with Ras (FRET / MOA assay, with Cyclophilin A); format: biochemical
How it was run: (§2)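 First, compounds at a ten-point threefold dilution series (highest final concentration 30 μM) were incubated with nucleotide-loaded K-Ras, Cyclophilin A and BRAF RBD for 3 h at 25 °C. Next, detection antibodies were added for 1.5 h. Finally, IC50 was calculated from TR-FRET ratio decreases against DMSO controls.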

KRAS G12D = KRAS G12D (Homo sapiens, UniProt P01116+P62937, G12D); assay: as above; format: biochemical
How it was run: as §2

KRAS G12S = KRAS G12S (Homo sapiens, UniProt P01116+P62937, G12S); assay: as above; format: biochemical
How it was run: as §2

KRAS G12V = KRAS G12V (Homo sapiens, UniProt P01116+P62937, G12V); assay: as above; format: biochemical
How it was run: as §2

KRAS G13C = KRAS G13C (Homo sapiens, UniProt P01116+P62937, G13C); assay: as above; format: biochemical
How it was run: as §2

KRAS G13D = KRAS G13D (Homo sapiens, UniProt P01116+P62937, G13D); assay: as above; format: biochemical
How it was run: as §2

KRAS WT = KRAS WT (Homo sapiens, UniProt P01116+P62937); assay: as above; format: biochemical
How it was run: as §2

NRAS G12C = NRAS G12C (Homo sapiens, UniProt P01111+P62937, G12C); assay: as above; format: biochemical
KRAS Q61H = KRAS Q61H (Homo sapiens, UniProt P01116+P62937, Q61H); assay: as above; format: biochemical; conditions: KRAS Q61H; read-out: KRAS Q61H FRET data IC50
How it was run: (§3)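 IC50 reflects compound-driven Ras:Cyclophilin A ternary complex displacing BRAF RBD, read as lowered TR-FRET ratio relative to DMSO after Eu anti-His (10 nM) and APC anti-GST (50 nM) detection for 1.5 h. Prior incubation 3 h, 25° C, with 12.5 nM GMPPNP-loaded Ras, 50 nM BRAF RBD, 25 μM Cyclophilin A; top compound 30 μM.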

NRAS Q61K = NRAS Q61K (Homo sapiens, UniProt P01111+P62937, Q61K); assay: as above; format: biochemical; conditions: NRAS Q61K; read-out: NRAS Q61K FRET data IC50
How it was run: as §3

NRAS Q61R = NRAS Q61R (Homo sapiens, UniProt P01111+P62937, Q61R); assay: as above; format: biochemical; conditions: NRAS Q61R; read-out: NRAS Q61R FRET data IC50
How it was run: as §3

NRAS WT = NRAS WT (Homo sapiens, UniProt P01111+P62937); assay: as above; format: biochemical; conditions: NRAS WT; read-out: NRAS WT FRET data IC50
How it was run: as §3

[1] = read-out: KRAS G12C FRET data, IC50
[2] = read-out: KRAS G12D FRET data, IC50
[3] = read-out: KRAS G12S FRET data, IC50
[4] = KRAS G12V, read-out: KRAS G12V FRET data IC50
[5] = read-out: KRAS G13C FRET data, IC50
[6] = KRAS G13D, read-out: KRAS G13D FRET data IC50
[7] = KRAS WT, read-out: KRAS WT FRET data IC50
[8] = NRAS G12C, read-out: NRAS G12C FRET data IC50

Sequence of KRAS WT (P01116 1-169 isoform P01116-2 limits assumed): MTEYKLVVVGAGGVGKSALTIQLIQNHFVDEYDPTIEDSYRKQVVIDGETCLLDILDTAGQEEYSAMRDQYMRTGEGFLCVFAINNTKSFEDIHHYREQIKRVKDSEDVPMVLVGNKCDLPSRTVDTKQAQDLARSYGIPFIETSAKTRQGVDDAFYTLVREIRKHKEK
Sequence of KRAS WT (P62937 whole entry): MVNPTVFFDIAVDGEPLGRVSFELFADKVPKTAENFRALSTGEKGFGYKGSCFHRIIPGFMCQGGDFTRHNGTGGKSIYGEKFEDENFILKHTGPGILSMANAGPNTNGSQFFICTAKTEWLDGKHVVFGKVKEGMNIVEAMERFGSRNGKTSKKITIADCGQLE
Sequence of NRAS WT (P01111 whole entry): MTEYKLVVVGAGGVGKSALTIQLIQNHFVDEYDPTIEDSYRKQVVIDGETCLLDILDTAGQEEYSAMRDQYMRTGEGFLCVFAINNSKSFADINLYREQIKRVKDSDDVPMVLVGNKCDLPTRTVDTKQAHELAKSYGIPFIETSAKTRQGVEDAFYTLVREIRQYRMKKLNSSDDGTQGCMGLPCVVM
Sequence of NRAS WT (P62937 whole entry): as the sequence (P62937 whole entry) above
Sequence of KRAS G12C (P01116 1-169 isoform P01116-2 G12C): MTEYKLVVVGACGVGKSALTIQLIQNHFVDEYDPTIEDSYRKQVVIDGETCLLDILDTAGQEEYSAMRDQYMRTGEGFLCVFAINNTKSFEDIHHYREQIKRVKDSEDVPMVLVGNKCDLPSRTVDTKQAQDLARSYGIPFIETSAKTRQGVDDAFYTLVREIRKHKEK
Sequence of KRAS G12C (P62937 whole entry): as the sequence (P62937 whole entry) above
Sequence of KRAS Q61H (P01116 1-169 isoform P01116-2 Q61H limits assumed): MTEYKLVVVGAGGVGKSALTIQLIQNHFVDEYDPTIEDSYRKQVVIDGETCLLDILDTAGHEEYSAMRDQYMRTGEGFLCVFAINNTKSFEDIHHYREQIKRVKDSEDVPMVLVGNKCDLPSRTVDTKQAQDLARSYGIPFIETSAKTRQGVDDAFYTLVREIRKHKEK
Sequence of KRAS Q61H (P62937 whole entry): as the sequence (P62937 whole entry) above
Sequence of NRAS Q61R (P01111 whole entry Q61R): as the sequence (P01111 whole entry) above, with Q61R counted along it
Sequence of NRAS Q61R (P62937 whole entry): as the sequence (P62937 whole entry) above
Sequence of KRAS G12S (P01116 1-169 isoform P01116-2 G12S limits assumed): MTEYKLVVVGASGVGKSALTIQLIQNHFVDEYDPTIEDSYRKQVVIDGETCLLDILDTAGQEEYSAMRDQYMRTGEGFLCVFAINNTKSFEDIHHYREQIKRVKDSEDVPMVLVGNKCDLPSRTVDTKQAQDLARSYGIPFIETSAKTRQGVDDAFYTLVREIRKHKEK
Sequence of KRAS G12S (P62937 whole entry): as the sequence (P62937 whole entry) above
Sequence of KRAS G12D (P01116 1-169 isoform P01116-2 G12D limits assumed): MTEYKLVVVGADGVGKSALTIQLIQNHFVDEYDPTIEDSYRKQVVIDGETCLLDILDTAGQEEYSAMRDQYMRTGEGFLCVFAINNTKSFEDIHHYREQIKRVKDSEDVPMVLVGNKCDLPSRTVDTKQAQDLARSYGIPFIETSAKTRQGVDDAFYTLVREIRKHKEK
Sequence of KRAS G12D (P62937 whole entry): as the sequence (P62937 whole entry) above
Sequence of NRAS Q61K (P01111 whole entry Q61K): as the sequence (P01111 whole entry) above, with Q61K counted along it
Sequence of NRAS Q61K (P62937 whole entry): as the sequence (P62937 whole entry) above
Sequence of KRAS G13D (P01116 1-169 isoform P01116-2 G13D limits assumed): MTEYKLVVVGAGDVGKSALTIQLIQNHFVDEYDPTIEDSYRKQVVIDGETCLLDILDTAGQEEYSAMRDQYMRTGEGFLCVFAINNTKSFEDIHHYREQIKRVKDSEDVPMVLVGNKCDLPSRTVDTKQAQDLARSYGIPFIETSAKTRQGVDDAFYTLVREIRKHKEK
Sequence of KRAS G13D (P62937 whole entry): as the sequence (P62937 whole entry) above
Sequence of NRAS G12C (P01111 whole entry G12C): as the sequence (P01111 whole entry) above, with G12C counted along it
Sequence of NRAS G12C (P62937 whole entry): as the sequence (P62937 whole entry) above
Sequence of KRAS G12V (P01116 1-169 isoform P01116-2 G12V limits assumed): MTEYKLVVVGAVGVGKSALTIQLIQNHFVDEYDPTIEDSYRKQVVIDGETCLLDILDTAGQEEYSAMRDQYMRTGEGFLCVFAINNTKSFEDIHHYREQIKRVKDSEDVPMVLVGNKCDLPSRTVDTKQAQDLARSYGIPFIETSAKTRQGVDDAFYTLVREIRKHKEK
Sequence of KRAS G12V (P62937 whole entry): as the sequence (P62937 whole entry) above
Sequence of KRAS G13C (P01116 1-169 isoform P01116-2 G13C): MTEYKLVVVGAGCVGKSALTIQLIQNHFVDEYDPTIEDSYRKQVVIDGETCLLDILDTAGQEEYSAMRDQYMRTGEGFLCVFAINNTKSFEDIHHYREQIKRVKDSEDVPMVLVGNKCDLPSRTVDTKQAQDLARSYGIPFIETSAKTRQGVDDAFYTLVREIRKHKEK
Sequence of KRAS G13C (P62937 whole entry): as the sequence (P62937 whole entry) above

| SMILES | IC50 (NCI-H358 (K-Ras G12C)) [nM] | IC50 (KRAS G12C; [1]) [nM] | IC50 (KRAS G12D; [2]) [nM] | IC50 (KRAS G12S; [3]) [nM] | IC50 (KRAS G12V; [4]) [nM] | IC50 (KRAS G13C; [5]) [nM] | IC50 (KRAS G13D; [6]) [nM] | IC50 (KRAS WT; [7]) [nM] | IC50 (NRAS G12C; [8]) [nM] | IC50 (KRAS Q61H) [nM] | IC50 (NRAS Q61K) [nM] | IC50 (NRAS Q61R) [nM] | IC50 (NRAS WT) [nM] | IC50 (Capan-1 (K-Ras G12V)) [nM] | other results |
| --- | --- | --- | --- | --- | --- | --- | --- | --- | --- | --- | --- | --- | --- | --- | --- |
| CCn1c(-c2cccnc2[C@H](C)OC)c2c3cc(ccc31)-c1csc(n1)C[C@H](NC(=O)[C@H]1CCCO1)C(=O)N1CCC[C@H](N1)C(=O)OCC(C)(C)C2 (atropisomer, axis not shown) [Example A315] | 100 to 1000 | 100 to 1000 | 1000 to 10000 | 100 to 1000 | 100 to 1000 | 100 to 1000 | 100 to 1000 | 100 to 1000 | 100 to 1000 | 100 to 1000 | 100 to 1000 | 1000 to 10000 | 100 to 1000 | 100 to 1000 | – |
| CCn1c(-c2cccnc2[C@H](C)OC)c2c3cc(ccc31)-c1csc(n1)C[C@H](NC(=O)N1CCCC1)C(=O)N1CCC[C@H](N1)C(=O)OCC(C)(C)C2 [Example A267] | 100 to 1000 | – | – | – | – | – | – | – | – | 100 to 1000 | 100 to 1000 | 100 to 1000 | 100 to 1000 | 100 to 1000 | IC50 (KRAS G12C; KRAS G12C FRET data, IC50): 100 to 1000 nM; IC50 (KRAS G12D; KRAS G12D FRET data, IC50): 100 to 1000 nM; IC50 (KRAS G12S; KRAS G12S FRET data, IC50): 100 to 1000 nM; IC50 (KRAS G12V; KRAS G12V FRET data IC50, KRAS G12V): 100 to 1000 nM; IC50 (KRAS G13C; KRAS G13C FRET data, IC50): 100 to 1000 nM; IC50 (KRAS G13D; KRAS G13D FRET data IC50, KRAS G13D): 100 to 1000 nM; IC50 (KRAS WT; KRAS WT FRET data IC50, KRAS WT): 100 to 1000 nM; IC50 (NRAS G12C; NRAS G12C FRET data IC50, NRAS G12C): 10 to 100 nM |
| CCn1c(-c2cc(N3CCN(C)CC3)cnc2[C@H](C)OC)c2c3cc(ccc31)-c1csc(n1)C[C@H](NC(=O)[C@H](C(C)C)N(C)C(=O)N1CCC13CCN(C)CC3)C(=O)N1CCC[C@H](N1)C(=O)OCC(C)(C)C2 (atropisomer, axis not shown) [Example A483] | < 10 | 10 to 100 | 10 to 100 | 10 to 100 | 100 to 1000 | 100 to 1000 | 100 to 1000 | 10 to 100 | 10 to 100 | 10 to 100 | 10 to 100 | 10 to 100 | 10 to 100 | 10 to 100 | – |

Second part, led by results:

| IC50 (NCI-H358 (K-Ras G12C)) [nM] | IC50 (KRAS G12C; [1]) [nM] | IC50 (KRAS G12D; [2]) [nM] | IC50 (KRAS G12S; [3]) [nM] | IC50 (KRAS G12V; [4]) [nM] | IC50 (KRAS G13C; [5]) [nM] | IC50 (KRAS G13D; [6]) [nM] | IC50 (KRAS WT; [7]) [nM] | IC50 (NRAS G12C; [8]) [nM] | IC50 (KRAS Q61H) [nM] | IC50 (NRAS Q61K) [nM] | IC50 (NRAS Q61R) [nM] | IC50 (NRAS WT) [nM] | SMILES | IC50 (Capan-1 (K-Ras G12V)) [nM] | other results |
| --- | --- | --- | --- | --- | --- | --- | --- | --- | --- | --- | --- | --- | --- | --- | --- |
| 100 to 1000 | 100 to 1000 | 100 to 1000 | 100 to 1000 | 100 to 1000 | 100 to 1000 | 100 to 1000 | 100 to 1000 | 100 to 1000 | 10 to 100 | 100 to 1000 | 100 to 1000 | 100 to 1000 | CCn1c(-c2cccnc2[C@H](C)OC)c2c3cc(ccc31)-c1csc(n1)C[C@H](NC(=O)[C@H](C(C)C)N(C)C(=O)N1[C@H](C)CN(C)C[C@H]1C)C(=O)N1CCC[C@H](N1)C(=O)OCC(C)(C)C2 [Example A610] | 100 to 1000 | – |
| 10 to 100 | 100 to 1000 | 1000 to 10000 | 1000 to 10000 | 1000 to 10000 | 1000 to 10000 | 1000 to 10000 | 1000 to 10000 | 100 to 1000 | 100 to 1000 | 100 to 1000 | 100 to 1000 | 1000 to 10000 | CCn1c(-c2cccnc2[C@H](C)OC)c2c3cc(ccc31)-c1csc(n1)C[C@H](NC(=O)[C@H](C(C)C)N(C)C(=O)N1CC3(CN(C)CCO3)C1)C(=O)N1CCC[C@H](N1)C(=O)OCC(C)(C)C2 [Example A499] | 10 to 100 | – |
